US20220151229A1, “Synergistic Herbicidal Combinations” (Clariant International Ltd., priority 2019, published 2022)

Assays:
Assay type in all cases: in vivo
Lolium perenne - LOLPE = test: Greenhouse post-emergence herbicide trial, Lolium perenne; conditions: 200 L/ha, A1 7.5 % w/w
Text: (§1) Standard post emergence herbicide application procedures were used, as described below, to apply inventive compounds in combination with sulfonylurea herbicides.
(§2) Seed of monocotyledonous and dicotyledonous harmful plants such as Brassica napus (BRSNW) Abutilon theophrasti (ABUTH), Alopecurus myosuroides (ALOMY), Amaranthus retroflexus (AMARE), Digitaria Sanguinalis (DIGSA), Echinochloa crus-galli (ECHCG), Erigeron canadensis (ERICA), Galium aparine (GALAP), Lolium perenne (LOLPE), Sectaria viridis (SETVI), Solanun nigrum (SOLNI), Viola arvensis (VIOAR) were sowed in 18 cm^2 pots. The plants were placed in a greenhouse under controlled environmental conditions, and sub-irrigation. About one week after emergence, seedlings were thinned as needed, including removal of any unhealthy or abnormal plants, to create a uniform series of test pots.
(§3) The plants were maintained for the duration of the test in the greenhouse, where they received a mean of 70 μmol m-2 s-1 of light per day/night. Temperatures averages about 24° C. during the day and about 20° C. during the night. Plants were sub-irrigated throughout the test to ensure adequate soil moisture levels.
(§4) Pots were assigned to different treatment in a randomized experimental design. A set of pots was left untreated as a reference against which effects of the treatments could later be evaluated. Application of tested formulations was made in a spray cabin model 01S-15E designed by CheckTec using the following parameters: • Two edge nozzle Lechler OC2, 200 L/ha, 3 bars. • Two edge nozzle Lechler OC3, 500 L/ha, 3 bars.
(§5) The distance of the nozzle from the plants was between 50 to 53 cm. and the nozzle spacing was 50 cm.
(§6) After treatment, pots were returned to the greenhouse until ready for evaluation. Evaluations were performed at different times after application (DAT: days after treatment), depending on the experiment.
(§7) For evaluation of herbicidal effectiveness, all plants in the test were examined by a single technician, who recorded percent control, a visual measurement of the effectiveness of each treatment by comparison with untreated plants. […] The reported % control values represent the average for all replicates of each treatment.
(§8) Iodosulfuron-methyl-sodium and Nicosulfuron were applied as dilutions of the active ingredient in water.

Sectaria Viridis - SETVI = test: Greenhouse post-emergence herbicide trial, Sectaria Viridis; conditions: 200 L/ha, A1 7.5 % w/w
Text: as §1, §2, §3, §4, §5, §6, §7, §8

Galium aparine - GALAP = test: Greenhouse post-emergence herbicide trial, Galium aparine; conditions: 200 L/ha, A1 7.5 % w/w
Text: as §1, §2, §3, §4, §5, §6, §7, §8

Solanum nigrum - SOLNI = test: Greenhouse post-emergence herbicide trial, Solanum nigrum
Text: as §1, §2, §3, §4, §5, §6, §7, §8

Brassica napus - BRSNW = test: Greenhouse post-emergence herbicide trial, Brassica napus; conditions: 200 L/ha, A1 7.5 % w/w
Text: as §1, §2, §3, §4, §5, §6, §7, §8

Substance: Pelargonic acid 6 EO ester methyl ether [A1]
- Effectiveness control (Lolium perenne - LOLPE; 1 DAT): 11.50%
- Effectiveness control (Lolium perenne - LOLPE; 2 DAT): 11.50%
- Effectiveness control (Lolium perenne - LOLPE; 7 DAT): 5.00%
- Effectiveness control (Lolium perenne - LOLPE; 10 DAT): 0.00%
- Effectiveness control (Lolium perenne - LOLPE; 16 DAT): 0.00%
- Effectiveness control (Lolium perenne - LOLPE; 22 DAT): 0.00%
- Effectiveness control (Lolium perenne - LOLPE; 28 DAT): 0.00%
- Effectiveness control (Sectaria Viridis - SETVI; 1 DAT): 19.25%
- Effectiveness control (Sectaria Viridis - SETVI; 2 DAT): 21.25%
- Effectiveness control (Sectaria Viridis - SETVI; 7 DAT): 21.25%
- Effectiveness control (Sectaria Viridis - SETVI; 10 DAT): 20.00%
- Effectiveness control (Sectaria Viridis - SETVI; 16 DAT): 16.00%
- Effectiveness control (Sectaria Viridis - SETVI; 22 DAT): 16.00%
- Effectiveness control (Sectaria Viridis - SETVI; 28 DAT): 0.00%
- Effectiveness control (Galium aparine - GALAP; 1 DAT): 31.75%
- Effectiveness control (Galium aparine - GALAP; 2 DAT): 34.00%
- Effectiveness control (Galium aparine - GALAP; 7 DAT): 35.75%
- Effectiveness control (Galium aparine - GALAP; 10 DAT): 20.00%
- Effectiveness control (Galium aparine - GALAP; 16 DAT): 10.75%
- Effectiveness control (Galium aparine - GALAP; 22 DAT): 10.75%
- Effectiveness control (Galium aparine - GALAP; 28 DAT): 10.75%
- Effectiveness control (Solanum nigrum - SOLNI; 200 L/ha, A1 0.1 % w/w, 1 DAT): 0.00%
- Effectiveness control (Solanum nigrum - SOLNI; 200 L/ha, A1 0.1 % w/w, 2 DAT): 0.00%
- Effectiveness control (Solanum nigrum - SOLNI; 200 L/ha, A1 0.1 % w/w, 7 DAT): 0.00%
- Effectiveness control (Solanum nigrum - SOLNI; 200 L/ha, A1 0.1 % w/w, 15 DAT): 0.00%
- Effectiveness control (Solanum nigrum - SOLNI; 200 L/ha, A1 0.1 % w/w, 21 DAT): 0.00%
- Effectiveness control (Solanum nigrum - SOLNI; 200 L/ha, A1 2.5 % w/w, 1 DAT): 0.00%
- Effectiveness control (Solanum nigrum - SOLNI; 200 L/ha, A1 2.5 % w/w, 2 DAT): 0.00%
- Effectiveness control (Solanum nigrum - SOLNI; 200 L/ha, A1 2.5 % w/w, 7 DAT): 0.00%
- Effectiveness control (Solanum nigrum - SOLNI; 200 L/ha, A1 2.5 % w/w, 15 DAT): 0.00%
- Effectiveness control (Solanum nigrum - SOLNI; 200 L/ha, A1 2.5 % w/w, 21 DAT): 0.00%
- Effectiveness control (Solanum nigrum - SOLNI; 200 L/ha, A1 5 % w/w, 1 DAT): 0.75%
- Effectiveness control (Solanum nigrum - SOLNI; 200 L/ha, A1 5 % w/w, 2 DAT): 3.50%
- Effectiveness control (Solanum nigrum - SOLNI; 200 L/ha, A1 5 % w/w, 7 DAT): 3.50%
- Effectiveness control (Solanum nigrum - SOLNI; 200 L/ha, A1 5 % w/w, 15 DAT): 0.00%
- Effectiveness control (Solanum nigrum - SOLNI; 200 L/ha, A1 5 % w/w, 21 DAT): 0.00%
- Effectiveness control (Solanum nigrum - SOLNI; 200 L/ha, A1 10 % w/w, 1 DAT): 25.00%
- Effectiveness control (Solanum nigrum - SOLNI; 200 L/ha, A1 10 % w/w, 2 DAT): 48.50%
- Effectiveness control (Solanum nigrum - SOLNI; 200 L/ha, A1 10 % w/w, 7 DAT): 50.50%
- Effectiveness control (Solanum nigrum - SOLNI; 200 L/ha, A1 10 % w/w, 15 DAT): 47.50%
- Effectiveness control (Solanum nigrum - SOLNI; 200 L/ha, A1 10 % w/w, 21 DAT): 38.75%
- Effectiveness control (Solanum nigrum - SOLNI; 500 L/ha, A1 0.1 % w/w, 1 DAT): 0.00%
- Effectiveness control (Solanum nigrum - SOLNI; 500 L/ha, A1 0.1 % w/w, 2 DAT): 0.00%
- Effectiveness control (Solanum nigrum - SOLNI; 500 L/ha, A1 0.1 % w/w, 7 DAT): 0.00%
- Effectiveness control (Solanum nigrum - SOLNI; 500 L/ha, A1 0.1 % w/w, 15 DAT): 0.00%
- Effectiveness control (Solanum nigrum - SOLNI; 500 L/ha, A1 0.1 % w/w, 21 DAT): 0.00%
- Effectiveness control (Solanum nigrum - SOLNI; 500 L/ha, A1 2.5 % w/w, 1 DAT): 10.00%
- Effectiveness control (Solanum nigrum - SOLNI; 500 L/ha, A1 2.5 % w/w, 2 DAT): 21.25%
- Effectiveness control (Solanum nigrum - SOLNI; 500 L/ha, A1 2.5 % w/w, 7 DAT): 13.75%
- Effectiveness control (Solanum nigrum - SOLNI; 500 L/ha, A1 2.5 % w/w, 15 DAT): 7.75%
- Effectiveness control (Solanum nigrum - SOLNI; 500 L/ha, A1 2.5 % w/w, 21 DAT): 5.00%
- Effectiveness control (Solanum nigrum - SOLNI; 500 L/ha, A1 5 % w/w, 1 DAT): 26.00%
- Effectiveness control (Solanum nigrum - SOLNI; 500 L/ha, A1 5 % w/w, 2 DAT): 42.50%
- Effectiveness control (Solanum nigrum - SOLNI; 500 L/ha, A1 5 % w/w, 7 DAT): 32.50%
- Effectiveness control (Solanum nigrum - SOLNI; 500 L/ha, A1 5 % w/w, 15 DAT): 28.75%
- Effectiveness control (Solanum nigrum - SOLNI; 500 L/ha, A1 5 % w/w, 21 DAT): 27.50%
- Effectiveness control (Solanum nigrum - SOLNI; 500 L/ha, A1 10 % w/w, 1 DAT): 65.50%
- Effectiveness control (Solanum nigrum - SOLNI; 500 L/ha, A1 10 % w/w, 2 DAT): 75.50%
- Effectiveness control (Solanum nigrum - SOLNI; 500 L/ha, A1 10 % w/w, 7 DAT): 72.50%
- Effectiveness control (Solanum nigrum - SOLNI; 500 L/ha, A1 10 % w/w, 15 DAT): 63.75%
- Effectiveness control (Solanum nigrum - SOLNI; 500 L/ha, A1 10 % w/w, 21 DAT): 53.00%
- Effectiveness control (Brassica napus - BRSNW; 1 DAT): 74.25%
- Effectiveness control (Brassica napus - BRSNW; 2 DAT): 78.00%
- Effectiveness control (Brassica napus - BRSNW; 7 DAT): 75.00%
- Effectiveness control (Brassica napus - BRSNW; 10 DAT): 56.25%
- Effectiveness control (Brassica napus - BRSNW; 16 DAT): 39.25%
- Effectiveness control (Brassica napus - BRSNW; 22 DAT): 33.50%
- Effectiveness control (Brassica napus - BRSNW; 28 DAT): 32.50%
